The results in this text go back to a melting point compilation (Tetko et al.; mined from patent text by program, amines drawn as free bases though some values may be those of a salt).

Residues, ends and D or L forms follow the SMILES beside them. *: point of attachment. Cbz = O=C(OCc1ccccc1)*

In general, melting point refers to the temperature of the solid-liquid transition. `CC=CCn1c(C)c(C)c2cnnc(OCc3c(Cl)cccc3Cl)c21`: the melting point lay within 133 to 140 °C.
Compound `O=C1c2cc(-c3ccc(C(F)(F)F)cc3)ccc2CC1Br` (stereo not drawn) displayed a melting point of 105 °C.
As to `CCCCCCCCOc1cc2cc(C(=O)OC)c(C(=O)OC)c(-c3ccnc(Cl)c3)c2cc1OC`, the melting point was 93 to 97 °C.
Take `COC(=O)Cc1cc(OC)ccc1OCc1ccc(OCc2nc(-c3ccccc3)oc2C)cc1`: the melting point was 160 to 161 °C.
For `Cc1c(C(=O)Nc2ccc(N3CCC(O)CC3)c(C#N)c2)cnn1-c1ccc(F)cc1` the value was 215 to 216 °C.
Regarding `Cc1nc(NC(=O)Nc2ccc(F)cc2)sc1C(=O)NCc1ccccc1`, the melting point is > 300 °C.
With `O=C(Oc1cc2c(c3ccccc13)Nc1ccccc1S2)c1ccccc1`, the melting point worked out at 171 °C.
Turning to `COC(=O)[C@H](Cc1ccccc1)NC(=O)[C@H](CC(C)C)NC(=O)OCc1ccccc1` (Cbz-Leu-Phe-OMe), the melting point was 91 to 93 °C.
Regarding `CN1C(=O)CN(N)C(c2ccccc2)c2cc(Cl)ccc21` (stereo not drawn), the melting point lay in the range of 147 to 148 °C.
For the compound `CN(Cc1cccc2c1CN(C1CCC(=O)NC1=O)C2=O)C(=O)NC(C)(C)C` (stereo not drawn), the melting point lay in the range of 216 to 218 °C.
With `CCCc1nc(C(O)C(C)(C)C)c(C(N)=O)n1Cc1ccc(-c2ccccc2C(=O)O)cc1` (stereo not drawn), the melting point was > 160 °C.
For `CCCCCCCCCCCCCCCCCCOc1cc(OCCCOc2ccccc2)cc(C(=O)N(CC(=O)O)CC(=O)O)c1` the value was 86 to 90 °C; for `CNC(=O)c1cc(-c2ccc(-c3ccco3)cc2)n(-c2ccc(S(C)(=O)=O)c(F)c2)n1`, 196 to 198 °C.
Consider `COc1cc2c(cc1OC)C(C)=[N+]([O-])CN2`, for which the melting point lay within 161 to 163 °C.
Regarding `CCOP(C)(=O)CC(CC(C)C)NS(=O)(=O)c1ccc(C)cc1` (stereo not drawn), the melting point lay in the range of 96 to 105 °C.
`COC1(OCCc2nc(C(C)C)c(Sc3cc(Cl)cc(Cl)c3)n2C)c2ccccc2-c2ccccc21`: the melting point was in the range of 130 to 131 °C.
As to `CN(C)CCN(C(=O)c1cc([N+](=O)[O-])ccc1Br)c1ccnc2cc3c(cc12)OCO3`, the melting point is 204 to 205 °C.
In turn, `CC1=CC2Cc3[nH]c(=O)ccc3C3(C1)NCCCC23` (stereo not drawn) showed a melting point of 270 to 271 °C.
As for `COC(=O)Cc1cn(C)nc1OCc1ccc(OCc2csc(-c3ccccc3)n2)nc1`, the melting point was 85 to 86 °C.
Turning to `CCc1nn2c(N3CCN(C)CC3)ccnc2c1S(=O)(=O)c1ccccc1`, the melting point lay within 206 to 207 °C.
On to `CCOc1ccc(F)cc1OCCN1C(=O)c2ccccc2C1=O`, for which the melting point was 119 to 121 °C.
In turn, `CCCc1csc2ncc(C(=O)OC)n12` had a melting point of 149 to 150 °C.
For `O=C1Cc2cc(NC(=O)C(=O)N3CCC(Oc4ccccc4)CC3)ccc2N1` the value was 78 to 81 °C; for `O=S(=O)(c1ccccc1)n1c2ccc(CCc3ccccc3)cc2c2cc(Cl)cnc21`, 158 to 162 °C; for `CCN(CC)C(=O)c1c(S(N)(=O)=O)cc(OC)c(OC)c1C(C)C`, 138 to 140 °C.
Compound `CC(C)Oc1ccc(OCc2ccccc2)cc1-c1nc2ccc(CO)nc2[nH]1` yielded a melting point of 167 to 168 °C.
On to `CC1(C)C(=O)C(c2ccccc2)=C1c1ccc(S(C)(=O)=O)cc1`, for which the melting point lay in the range of 145 to 146 °C.
For the compound `COCCOc1cc(NC(=O)OC(C)(C)C)c(NC(=O)CC(=O)c2cccc(I)c2)cc1C#Cc1ccccc1`, the melting point was 172 °C.
In turn, `CC(c1ccccc1)N1Cc2cncn2C(c2cccc(Br)c2)C1=O` (single isomer, unassigned; (+)) came in with a melting point of 45 to 50 °C.
As for `CC(=O)c1ccc(C(=O)Nc2ccc(C(C)(C)C)cc2)cc1`, the melting point is 183 to 184 °C.
In turn, `CC(=O)CN1CCN(c2cc3c(cc2F)c(=O)c(C(=O)O)c2n3C(C)S2)CC1` (stereo not drawn) returned a melting point of 215 to 218 °C.
The compound `CCC(C(=O)O)N(C(=O)c1cn(-c2ccc(F)cc2F)nc1C)c1ccc(OCC(C)(C)C)c(C#N)c1` (stereo not drawn) had a melting point of 110 °C.
Compound `C=Cc1cnc2c(NC(=O)c3c(Cl)cccc3Cl)cccc2c1CCl` registered a melting point of 184 to 186 °C.
On to `O=C(O)[C@@H](CCN1C(=O)c2ccccc2C1=O)Oc1c(Br)cc(-c2c3ccccc3c(Br)c3sc4ccccc4c23)cc1Br`, for which the melting point was in the range of 215 to 217 °C.
Consider `O=c1c2c(Cc3cccc(OC(F)(F)F)c3)n[nH]c2c2cccnc2n1-c1cccc(OC(F)(F)F)c1`, for which the melting point lay within 174 to 177 °C.
On to `O=C(c1ccn2c1CSC2c1cccnc1)c1cn(Cc2nnn[nH]2)c2cc(-c3ccc(F)cc3)ccc12` (stereo not drawn), for which the melting point lay within 110 to 118 °C.
`Nc1ncnc2c1c(-c1cn[nH]c1)nn2Cc1oc2ccccc2c(=O)c1-c1ccccc1` showed a melting point of 235 to 237 °C.
With `COc1nc(C)c(N2CCCn3c2nc2c(Cl)ccc(C(OCC(F)(F)F)C4CC4)c23)c(C)n1` (stereo not drawn), the melting point was 225 to 227 °C.
On to `COc1ccc(-c2c(C(C)=O)c(CBr)nc3cc(OC)c(OC)cc23)cc1OC`, for which the melting point lay within 181 to 182 °C.
For the compound `CC(O)CSc1cc(C(C)(C)C)c(O)c(C(C)(C)C)c1` (stereo not drawn), the melting point amounted to 82 °C.
Then `COc1ccc(S(N)(=O)=O)cc1C(=O)NCC1CCCN1C1CC1` (stereo not drawn), with 163 °C; and `CCCCOc1ccc(CCCOc2nn(CC)cc2CC(=O)O)c(Oc2ccc(C(F)(F)F)cn2)c1`, with 81 to 82 °C; and `CCOC(=O)c1oc2ccc(Cc3ccc(O)cc3)c(O)c2c1C`, with 182 to 184 °C.
On to `CC1Cc2cc3c(cc2C(c2ccc([N+](=O)[O-])cc2)=NN1C(=S)Cl)OCO3` (stereo not drawn), for which the melting point was 187 to 188 °C.
As to `Cc1ccc(C)n1Nc1ccc(N2CC(C)OC(C)C2)nn1` (stereo not drawn), the melting point was in the range of 147 to 148 °C.
For the compound `CC(C)(C)C(=O)Nc1nc(OCCCCOCc2ccccc2)ccc1C=O`, the melting point lay in the range of 82 to 84 °C.
For `CCOC(=O)C(C(=O)OCC)C(C#N)(c1ccc(F)cc1)c1ccc(F)cc1` the value was 90 to 91 °C; for `CN1CCN(CCCOc2ccccc2Nc2nc(C#N)nc3c2ncn3C2CCCC2)CC1`, 136 to 138 °C; for `CN(C)CCN1C(=O)C(C)(C)SC1c1cccnc1` (stereo not drawn), 67 to 70 °C.
Take `CC(C)(C)OC(=O)C=Cc1ccc(-c2ccc3ncnc(Nc4ccc(OCc5cccc(F)c5)c(Cl)c4)c3c2)cc1`: the melting point came to 212 °C.
The compound `COC(=O)/C=C/c1ccc(C)cc1Br` came in with a melting point of 70 °C.
For `COc1ccc2cc(N)cc3c2c1C(=O)N(O)C3=O` the value was > 250 °C.
As to `CC(=O)N(CC(=O)O)c1c(C(=O)c2ccccc2)[nH]c2cc(Cl)ccc12`, the melting point fell in the range of 148 to 154 °C.
`CCOC(=O)C1=C(C)NN=C(C(=O)OC)C1c1ccccc1C#N` (stereo not drawn) came in with a melting point of 199 °C.
Turning to `COc1ccc2c(c1)-c1c(C#N)c(N3CCCCC3)c3c(c1C2)-c1ccccc1C3`, the melting point is 216 to 218 °C.
The compound `CNC(=O)c1ccc(C=CC(=O)NCC(=O)N(C)c2ccc(Cl)c(CBr)c2Cl)cc1` showed a melting point of 212 to 216 °C.
Regarding `O=C1CNN(Cc2cccc(C(F)(F)F)c2)C(=O)N1`, the melting point turned out to be 152 °C.
Compound `CC(C)(C)P(c1cccc2ccccc12)C(C)(C)C` displayed a melting point of 95 to 97 °C.
For `CC=CC(=O)c1oc2c(-c3ccc(F)cc3)c(-c3ccc(S(C)(=O)=O)cc3)nn2c1C` the value was 197 to 199 °C; for `CC(=O)OCCC1CCn2c(c(C3=C(c4cn(C)c5ccccc45)C(=O)OC3=O)c3ccccc32)C1` (stereo not drawn), 159 to 161 °C; for `CCC(CC)NC(=O)c1ccc(-c2scc(Br)c2CC(=O)OC)cc1`, 97 to 98 °C.
For `NC(=O)CC1(c2ccccc2)C(=O)Nc2ccccc21` (stereo not drawn) the value was 184 to 185 °C.
For `CCCCCCCN(Cc1ccc(CCCCCC)cc1)C(Nc1ccc(C(F)(F)F)cc1)=C1C(=O)COC1=O` the value was 94 to 98 °C; for `Oc1ccc(O[C@@H]2CCNC[C@H]2O)cc1` (relative stereo), 176 to 178 °C; for `COc1cc(OC)cc(C(O)C(=O)c2ccccc2)c1` (stereo not drawn), 98 to 104 °C.
The compound `CCOC(=O)Cc1ccc(NC(=O)C(COc2cccc(Cl)c2)NS(=O)(=O)c2ccc(F)cc2)cc1` (racemic) showed a melting point of 164 to 165 °C.
For the compound `Cc1ccc(-c2nc(CCl)co2)s1`, the melting point fell in the range of 84 to 85 °C.
Take `C=CCc1c(OCC(O)CSCCO)ccc(C(C)=O)c1O` (stereo not drawn): the melting point fell in the range of 54 to 56 °C.
In the case of `C[C@@H](CCCCC(=O)O)NC(=O)OCc1ccccc1`, the melting point was 82 to 83 °C.
`CC(C)(C)OC(=O)NC(C)(C)c1ccc(-c2ccno2)cc1` had a melting point of 145 to 146 °C.
With `O=c1cc(-c2ccc([N+](=O)[O-])cc2)oc2ncccc12`, the melting point was 261 to 263 °C.
`CCOC(=O)CN1C(=O)Nc2cccc(OC)c2C1C` (stereo not drawn) returned a melting point of 150 to 151 °C.
Then `CC1Cc2c(F)c(F)cc3c(=O)c(C(=O)O)cn(c23)N1C` (stereo not drawn), with 270 to 271 °C.
For `CC(=O)NC12CC3(C)CC(C)(CC(O)(C3)C1)C2` the value was 194 to 195 °C; for `CN1C(=O)CC[C@]2(C)c3ccc(Sc4nc5c(Br)cccc5s4)cc3CC[C@@H]12`, 206 to 210 °C; for `Nc1ncnc2c1ncn2C[C@@H](CF)OCP(=O)(O)O`, 194 to 197 °C.
For the compound `Oc1ccc(N2CCN(c3nncc4ccccc34)CC2)cc1`, the melting point lay within 244 to 245 °C.
Turning to `O=C(O)Cc1c(C(=O)C2CCCCC2)[nH]c2cc(Cl)ccc12`, the melting point fell in the range of 206 to 209 °C.
For `COc1c(C)cc(-c2cncc(OC3SCC(O)C(O)C3O)c2)cc1C` (stereo not drawn) the value was 173 °C; for `CCOC(=O)C1=C(C)N(C(=O)OCC)C(C)=C(C(=O)OCC)C1c1ccccc1C(F)(F)F`, 56 to 58 °C; for `O=C(Nc1ccccn1)Nc1cccc2c1C1CC3(CCN1C2=O)OCCO3` (stereo not drawn), 178 to 180 °C.
Regarding `CNC(=O)CC1CN=C(c2cc3cc(Oc4ccc(COC)nc4)cc(OC)c3[nH]2)S1` (stereo not drawn), the melting point was 102 to 104 °C.
Take `COc1ccc(Cl)cc1NC(=O)CN1CCN(CC(=O)N2CC=C(c3cccc(C(F)(F)F)c3)n3ncc(C#N)c32)CC1`: the melting point was 166 to 168 °C.
